Assay results reported in the supplement of paper PMC10307832.

Columns and labels:
Experiment in all cases: relative viability (nuclei count vs DMSO), 5 days (fraction); higher = more cells survive
XMD13-2 + Pemetrexed = compound: C1CC1C(=O)NC2=NNC3=C2C=CC(=C3)C4=CC(=CC=C4)C(=O)NC5CC5 [XMD13-2] + Nc1nc2[nH]cc(CCc3ccc(C(=O)N[C@@H](CCC(=O)O)C(=O)O)cc3)c2c(=O)[nH]1 [Pemetrexed] (partner 0.2 µM)
In short: (§1)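 The day after seeding in 1536-well plates, lung cancer cell lines were treated by pin tool with a single drug, or with a fixed anchor-drug dose together with five library-drug doses (not always all listed) in √10 steps. After 5 days, a combined fix-and-stain solution (final 0.05% Triton X-100, 1% formaldehyde, 1 ug/ml Hoechst) was added. Nuclei counted on 4× images gave relative viability as treated counts over vehicle counts, reported as the median of duplicate plates.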

XMD13-2 + Olaparib = compound: C1CC1C(=O)NC2=NNC3=C2C=CC(=C3)C4=CC(=CC=C4)C(=O)NC5CC5 [XMD13-2] + O=C(c1cc(Cc2n[nH]c(=O)c3ccccc23)ccc1F)N1CCN(C(=O)C2CC2)CC1 [Olaparib] (partner 8 µM)
In short: as §1

ALW-II-49-7 + Trametinib = compound: Cc1ccc(C(=O)Nc2cccc(C(F)(F)F)c2)cc1Nc1cncc(C(N)=O)c1 [ALW-II-49-7] + CC(=O)Nc1cccc(-n2c(=O)n(C3CC3)c(=O)c3c(Nc4ccc(I)cc4F)n(C)c(=O)c(C)c32)c1 [Trametinib] (partner 0.02 µM)
In short: as §1

ALW-II-49-7 + Vorinostat = compound: Cc1ccc(C(=O)Nc2cccc(C(F)(F)F)c2)cc1Nc1cncc(C(N)=O)c1 [ALW-II-49-7] + O=C(CCCCCCC(=O)Nc1ccccc1)NO [Vorinostat] (partner 1 µM)
In short: as §1

Cell Line | relative viability (XMD13-2 + Pemetrexed; first compound 0.05 µM) | relative viability (XMD13-2 + Pemetrexed; first compound 0.1581 µM) | relative viability (XMD13-2 + Pemetrexed; first compound 0.5 µM) | relative viability (XMD13-2 + Pemetrexed; first compound 1.581 µM) | relative viability (XMD13-2 + Pemetrexed; first compound 5 µM) | relative viability (XMD13-2 + Olaparib; first compound 0.05 µM) | relative viability (XMD13-2 + Olaparib; first compound 0.1581 µM) | relative viability (XMD13-2 + Olaparib; first compound 0.5 µM) | relative viability (XMD13-2 + Olaparib; first compound 1.581 µM) | relative viability (XMD13-2 + Olaparib; first compound 5 µM) | relative viability (ALW-II-49-7 + Trametinib; first compound 0.08 µM) | relative viability (ALW-II-49-7 + Trametinib; first compound 0.253 µM) | relative viability (ALW-II-49-7 + Trametinib; first compound 0.8 µM) | relative viability (ALW-II-49-7 + Trametinib; first compound 2.53 µM) | relative viability (ALW-II-49-7 + Trametinib; first compound 8 µM) | relative viability (ALW-II-49-7 + Vorinostat; first compound 0.08 µM) | relative viability (ALW-II-49-7 + Vorinostat; first compound 0.253 µM) | relative viability (ALW-II-49-7 + Vorinostat; first compound 0.8 µM) | relative viability (ALW-II-49-7 + Vorinostat; first compound 2.53 µM) | relative viability (ALW-II-49-7 + Vorinostat; first compound 8 µM)
NCI-H3122 | 0.193 | 0.195 | 0.199 | 0.199 | 0.195 | 0.726 | 0.649 | 0.697 | 0.702 | 0.629 | 0.243 | 0.235 | 0.292 | 0.311 | 0.222 | 1.06 | 0.907 | 0.854 | 1.15 | 0.987
COR-L 105 | 1.01 | 1.26 | 1.04 | 0.98 | 1.26 | 0.606 | 0.678 | 0.656 | 0.564 | 0.759 | 0.443 | 0.401 | 0.43 | 0.453 | 0.396 | 0.772 | 0.911 | 0.688 | 0.809 | 0.967
BEN | 0.876 | 0.858 | 0.734 | 0.641 | 0.803 | 0.925 | 0.94 | 0.941 | 1.12 | 0.995 | 1.08 | 1.03 | 1.05 | 0.578 | 1.02 | 0.557 | 0.723 | 0.592 | 0.441 | 0.558
NCI-H1915 | 0.504 | 0.509 | 0.544 | 0.504 | 0.513 | 0.273 | 0.253 | 0.287 | 0.254 | 0.269 | 0.305 | 0.383 | 0.334 | 0.251 | 0.262 | 0.585 | 0.483 | 0.498 | 0.348 | 0.256
